What was measured:
[1] = Oral bioavailability in rat; assay type: ADME, organism-based; settings: in vivo
[2] = Permeability coefficient of the compound in human Caco-2 cells; assay type: ADME, cell-based; settings: read-out: Kp
[3] = 1-Octanol/phosphate buffer partition coefficient, logP of the compound at pH 7.40; assay type: physicochemical; settings: pH 7.4
[4] = Induction of anion transport in NaCl loaded POPC liposomes assessed transmembrane permeability by measuring chloride efflux by ion selective electrode
[5] = Dissociation constant, pKa of compound; assay type: physicochemical

Row | logD [3] | EC50 [4] [mol%] | SMILES | also measured
1 | – | – | COC(=O)C1=C(C)NC(C)=C(C(=O)OC)C1c1cccc(NC(=O)NCCCN2CCC(c3cccc(OC)c3)CC2)c1 | bioavailability [1]: 0.1%; Papp [2]: 1.9 ×10⁻⁶ cm/s
2 | 1.12 | – | Cc1cccc(Nc2ccncc2S(=O)(=O)N/C(=C/[N+](=O)[O-])NC(C)C)c1 | –
3 | – | 0.01 | O=c1c(Nc2cc(C(F)(F)F)cc(C(F)(F)F)c2)c(Nc2cc(C(F)(F)F)cc(C(F)(F)F)c2)c1=O | –
4 | 0.86 | – | Cc1cccc(Nc2ccncc2S(=O)(=O)NC(=NC#N)NC(C)C)c1 | pKa [5]: 6
5 | – | 0.16 | FC(F)(F)c1cc(NC(=S)Nc2cc(C(F)(F)F)cc(C(F)(F)F)c2)cc(C(F)(F)F)c1 | –
6 | 0.61 | – | Cc1cccc(Nc2ccncc2S(=O)(=O)NC(=S)NC(C)C)c1 | –
7 | – | – | COC(=O)C1=C(C)NC(C)=C(C(=O)OC)C1c1cccc(N/C(=N/C#N)NCCCN2CCC(c3cccc(OC)c3)CC2)c1 | Papp [2]: 4.3 ×10⁻⁶ cm/s
8 | – | 0.3 | O=C(Nc1cc(C(F)(F)F)cc(C(F)(F)F)c1)Nc1cc(C(F)(F)F)cc(C(F)(F)F)c1 | –
9 | 0.45 | – | Cc1cccc(Nc2ccncc2S(=O)(=O)NC(=O)NC(C)C)c1 [TORSEMIDE] | pKa [5]: 6.68

— ChEMBL document CHEMBL5223063, “Recent advances in urea- and thiourea-containing compounds: focus on innovative approaches in medicinal chemistry and organic synthesis” (RSC Med Chem, 2021)
